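Briefly, cells in 96-well plates were exposed to five compound concentrations for 48 h, and endpoints were estimated by linear interpolation. GI50 marks 50% less growth. TGI: total growth inhibition.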
What was measured:
Assay in all cases: NCI tumour cell line growth inhibition, 48 h
NCI-H23 lung = system: NCI-H23 lung
NCI-H460 lung = system: NCI-H460 lung
RXF 393 renal = system: RXF 393 renal
SF-268 CNS = system: SF-268 CNS
SK-MEL-2 melanoma = system: SK-MEL-2 melanoma
SK-MEL-28 melanoma = system: SK-MEL-28 melanoma
SNB-19 CNS = system: SNB-19 CNS
UACC-62 melanoma = system: UACC-62 melanoma
HOP-92 NSCLC = system: HOP-92 NSCLC
HS 578T breast = system: HS 578T breast

Compound | TGI (NCI-H23 lung) | TGI (NCI-H460 lung) | TGI (RXF 393 renal) | TGI (SF-268 CNS) | TGI (SK-MEL-2 melanoma) | TGI (SK-MEL-28 melanoma) | TGI (SNB-19 CNS) | TGI (UACC-62 melanoma) | GI50 (HOP-92 NSCLC) | GI50 (HS 578T breast) | TGI (HS 578T breast) | GI50 (NCI-H23 lung) | GI50 (NCI-H460 lung) | GI50 (SF-268 CNS) | GI50 (SK-MEL-2 melanoma) | GI50 (SK-MEL-28 melanoma) | GI50 (SNB-19 CNS) | GI50 (UACC-62 melanoma) | TGI (HOP-92 NSCLC) | GI50 (RXF 393 renal)
COC1(C)C(=O)N2C1N(C(=O)OCc1ccccc1)CC2(C)C (stereo not drawn) | > 100 µM | > 100 µM | > 100 µM | > 100 µM | > 100 µM | > 100 µM | > 100 µM | > 100 µM | – | – | – | – | – | – | – | – | – | – | – | –
Nc1cc2cccc[n+]2c2cccc(Cl)c12 | 65.6 µM | 58.7 µM | – | 35.6 µM | 28.1 µM | 41.7 µM | 84.1 µM | 59.8 µM | 51 µM | 21.9 µM | 60.2 µM | 14.3 µM | 20.2 µM | 4.94 µM | 10.7 µM | 17 µM | 12.7 µM | 24.7 µM | – | –
O=C(CCc1nc(=S)[nH][nH]1)Nc1cccc(C(F)(F)F)c1 | > 100 µM | > 100 µM | > 100 µM | > 100 µM | > 100 µM | > 100 µM | > 100 µM | > 100 µM | – | – | – | – | – | – | – | – | – | – | > 100 µM | –
CC1=NN(C(=O)c2ccc(Cl)cc2)C(=O)/C1=C/c1ccc(Cl)cc1 | > 100 µM | > 100 µM | > 100 µM | > 100 µM | > 100 µM | > 100 µM | > 100 µM | > 100 µM | – | – | – | – | – | – | – | – | – | – | > 100 µM | –
COCCOCOC(C)(C)[C@H](CCOC(C)=O)O[Si](c1ccccc1)(c1ccccc1)C(C)(C)C | 80 µM | 24.1 µM | 45.7 µM | > 100 µM | 59.2 µM | > 100 µM | > 100 µM | 55.3 µM | – | – | – | – | – | – | – | – | – | – | 27.9 µM | –
Cc1ccc(NC(=O)CC2SC(N)=NC2=O)cc1C (stereo not drawn) | > 100 µM | > 100 µM | – | > 100 µM | > 100 µM | > 100 µM | > 100 µM | > 100 µM | – | – | – | – | – | – | – | – | – | – | > 100 µM | –
COc1ccc2c(c1)C(=O)c1c-2n(CCCN)c(=O)c2cc([N+](=O)[O-])ccc12 | – | 0.0146 µM | < 0.01 µM | < 0.01 µM | 8.53 µM | – | 2.13 µM | < 0.01 µM | – | 1.81 µM | 4.44 µM | – | < 0.01 µM | < 0.01 µM | 3.06 µM | – | < 0.01 µM | < 0.01 µM | – | < 0.01 µM
CN1CCc2c1nc(-c1cccnc1)c1c2N(C)CC1 | > 100 µM | > 100 µM | > 100 µM | > 100 µM | > 100 µM | – | > 100 µM | > 100 µM | – | – | – | – | – | – | – | – | – | – | > 100 µM | –
Cc1nc2c(sc(=S)n2-c2ccccc2)c2nc3ccccc3n12 | > 100 µM | – | > 100 µM | > 100 µM | > 100 µM | > 100 µM | > 100 µM | > 100 µM | – | – | – | – | – | – | – | – | – | – | – | –
COc1ccc(Cc2nc3ccccc3s2)cc1OC | 40.4 µM | 38.3 µM | 34.7 µM | 29.5 µM | 42.6 µM | 31.9 µM | 99.9 µM | 31.4 µM | – | – | – | – | – | – | – | – | – | – | 36.5 µM | –
NCCC(=O)NC(Cc1cnc[nH]1)C(=O)O (stereo not drawn) | > 100 µM | > 100 µM | – | > 100 µM | > 100 µM | > 100 µM | > 100 µM | – | – | – | > 100 µM | – | – | – | – | – | – | – | > 100 µM | –
NC(=O)C12CC3CC(CC(Br)(C3)C1)C2 | > 100 µM | > 100 µM | – | > 100 µM | – | > 100 µM | > 100 µM | > 100 µM | – | – | – | – | – | – | – | – | – | – | > 100 µM | –
COc1cc(/C=C\c2ccncc2)cc(OC)c1OC | – | > 100 µM | > 100 µM | > 100 µM | – | > 100 µM | > 100 µM | > 100 µM | – | – | – | – | – | – | – | – | – | – | > 100 µM | –
N/C(=N\c1nc2ccccc2s1)NC(=NC1CCCCC1)NC1CCCCC1 | 3.38 µM | 3.43 µM | 2.86 µM | 3.65 µM | 3.47 µM | 3.24 µM | 3.02 µM | 3.01 µM | – | 1.77 µM | 3.89 µM | 1.75 µM | 1.77 µM | 1.81 µM | 1.78 µM | 1.75 µM | 1.59 µM | 1.61 µM | – | 1.46 µM
CC(=O)NNc1nc(C)c(C(=O)/C=C/c2ccc(/C=C/C(=O)c3sc(NNC(C)=O)nc3C)cc2)s1 | > 100 µM | > 100 µM | > 100 µM | > 100 µM | > 100 µM | > 100 µM | > 100 µM | > 100 µM | – | – | – | – | – | – | – | – | – | – | – | –
Nc1ccc(C(=O)N/C(=C\c2cccc([N+](=O)[O-])c2)c2nc3ccc(Cl)cc3[nH]2)cc1 | > 100 µM | – | > 100 µM | > 100 µM | > 100 µM | > 100 µM | > 100 µM | > 100 µM | – | – | – | – | – | – | – | – | – | – | 75.8 µM | –
N.N.N.N.N.O=S(=O)([O-])C(F)(F)F.O=S(=O)([O-])C(F)(F)F.[Os+8] | 19.1 µM | > 100 µM | 18.7 µM | – | 24.7 µM | 30.2 µM | – | 28.2 µM | 14.8 µM | – | – | 5.07 µM | 5.21 µM | – | 11.7 µM | 10.8 µM | – | 12.1 µM | 35.8 µM | 5.37 µM
COc1cc2c(cc1-c1coc3cc(OCC=C(C)C)ccc3c1=O)OCO2 | > 100 µM | 35.1 µM | – | > 100 µM | > 100 µM | > 100 µM | > 100 µM | > 100 µM | – | – | > 100 µM | – | – | – | – | – | – | – | > 100 µM | –
COC/N=C(/N)NC#N | > 100 µM | > 100 µM | > 100 µM | > 100 µM | > 100 µM | > 100 µM | > 100 µM | > 100 µM | – | – | – | – | – | – | – | – | – | – | > 100 µM | –
Nc1ncnc2c1nnn2C1C=C(CO)C(O)C1O (stereo not drawn) | > 100 µM | > 100 µM | > 100 µM | > 100 µM | > 100 µM | > 100 µM | > 100 µM | > 100 µM | – | – | – | – | – | – | – | – | – | – | > 80.2 µM | –
Brc1cccc(-c2cc(-c3ccc4nccnc4c3)[nH]n2)c1 | > 250 µM | > 60 µM | – | > 250 µM | > 250 µM | > 250 µM | > 250 µM | > 250 µM | 4.54 µM | 1.02 µM | > 250 µM | 1.33 µM | 0.729 µM | 3.68 µM | 1.55 µM | 4.87 µM | 1.41 µM | 1.35 µM | > 250 µM | –
